Series [1] concerns the target T1, recombinant BACE1 protein (Homo sapiens, UniProt P56817).
T1 construct: recombinant BACE1 protein in a final concentration of 1 μg/ml
As to the kind of experiment: BACE1 biochemical FRET based assay - Method 1. The settings on record: BACE1 1 μg/ml, 120 minutes, 10 μm substrate, pH 5.0; read-out: Biochemical FRET based assay - Method 1 pIC50 (converted). An excerpt:
BACE1 Biochemical FRET Based Assay
This assay is a Fluorescence Resonance Energy Transfer Assay (FRET) based assay. The substrate for this assay is an APP derived 13 amino acids peptide that contains the ‘Swedish’ Lys-Met/Asn-Leu mutation of the amyloid precursor protein (APP) beta-secretase cleavage site. This substrate also contains two fluorophores: (7-methoxycoumarin-4-yl) acetic acid (Mca) is a fluorescent donor with excitation wavelength at 320 nm and emission at 405 nm and 2,4-Dinitrophenyl (Dnp) is a proprietary quencher acceptor. […] Upon cleavage by BACE1, the fluorophore Mca is separated from the quenching group Dnp, restoring the full fluorescence yield of the donor. The increase in fluorescence is linearly related to the rate of proteolysis.
Briefly in a 384-well format recombinant BACE1 protein in a final concentration of 1 μg/ml is incubated for 120 minutes at room temperature with 10 μm substrate in incubation buffer (40 mM Citrate buffer pH 5.0, 0.04% PEG, 4% DMSO) in the absence or presence of compound. Next the amount of proteolysis is directly measured by fluorescence measurement at T=0 and T=120 (excitation at 320 nm and emission at 405 nm). Results are expressed in RFU (Relative Fluorescence Units), as difference between T120 and T0.
(§1) A best-fit curve is fitted by a minimum sum of squares method to the plot of % Controlmin versus compound concentration. From this an IC50 value (inhibitory concentration causing 50% inhibition of activity) can be obtained.

The target in series [2] is T2, recombinant BACE2 protein (Homo sapiens, UniProt Q9Y5Z0).
T2 construct: recombinant BACE2 protein in a final concentration of 0.4 μg/nil
T2 sequence (Q9Y5Z0 63-518): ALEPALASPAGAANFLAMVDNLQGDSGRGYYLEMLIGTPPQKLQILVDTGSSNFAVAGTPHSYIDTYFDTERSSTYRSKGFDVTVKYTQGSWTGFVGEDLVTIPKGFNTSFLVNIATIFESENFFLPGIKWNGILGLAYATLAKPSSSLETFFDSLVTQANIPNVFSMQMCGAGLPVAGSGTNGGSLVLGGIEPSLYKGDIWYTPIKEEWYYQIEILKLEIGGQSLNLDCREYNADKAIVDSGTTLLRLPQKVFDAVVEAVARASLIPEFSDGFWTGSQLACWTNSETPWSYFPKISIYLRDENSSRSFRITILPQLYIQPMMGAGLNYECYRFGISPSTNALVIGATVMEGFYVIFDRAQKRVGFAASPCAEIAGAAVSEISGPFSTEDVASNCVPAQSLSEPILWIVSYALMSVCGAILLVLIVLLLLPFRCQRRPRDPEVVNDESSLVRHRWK
As to the kind of experiment: BACE2 biochemical FRET based assay. The following applies: BACE2 0.4 μg/nil, 450 minutes, 10 μM substrate, pH 5.0; read-out: Biochemical FRET based assay pIC50 (BACE2) (converted).

The test system of series [3] is Abeta total produced and secreted by SKNBE2 cells expressing hAPP695. Put plainly: Cellular αLisa assay in SKNBE2 cells - Abeta total. In kind it is cell-based. The following applies: Homo sapiens, incubated for 18 hours, read-out: Cellular αLisa assay in SKNBE2 cells Abeta total pIC50 (converted). On the procedure:
Cellular αLisa Assay in SKNBE2 Cells
In two αLisa assays the levels of Abeta total and Abeta 1-42 produced and secreted into the medium of human neuroblastoma SKNBE2 cells are quantified. The assay is based on the human neuroblastoma SKNBE2 expressing the wild type Amyloid Precursor Protein (hAPP695). The compounds are diluted and added to these cells, incubated for 18 hours and then measurements of Abeta 1-42 and Abeta total are taken. Abeta total and Abeta 1-42 are measured by sandwich αLisa. αLisa is a sandwich assay using biotinylated antibody AbN/25 attached to streptavidin coated beads and antibody Ab4G8 or cAb42/26 conjugated acceptor beads for the detection of Abeta total and Abeta 1-42 respectively. In the presence of Abeta total or Abeta 1-42, the beads come into close proximity. The excitation of the donor beads provokes the release of singlet oxygen molecules that trigger a cascade of energy transfer in the acceptor beads, resulting in light emission. Light emission is measured after 1 hour incubation (excitation at […] and emission at 615 nm).
as §1

Series [4] concerns Abeta 1-42 produced and secreted by SKNBE2 cells expressing hAPP695. As to the kind of experiment: Cellular αLisa assay in SKNBE2 cells - Abeta 42. The class given is cell-based, human. The settings on record: Homo sapiens, incubated for 18 hours, read-out: Cellular αLisa assay in SKNBE2 cells Abeta 42 pIC50 (converted).
Series [5] deals with T1, recombinant BACE1 protein. Put plainly: BACE1 biochemical FRET based assay - Method 2. The settings on record: BACE1 0.04 μg/ml, 450 minutes, 20 μM substrate, pH 5.0; read-out: Biochemical FRET based assay- Method 2 pIC50 (converted).

T1 sequence (P56817 46-501): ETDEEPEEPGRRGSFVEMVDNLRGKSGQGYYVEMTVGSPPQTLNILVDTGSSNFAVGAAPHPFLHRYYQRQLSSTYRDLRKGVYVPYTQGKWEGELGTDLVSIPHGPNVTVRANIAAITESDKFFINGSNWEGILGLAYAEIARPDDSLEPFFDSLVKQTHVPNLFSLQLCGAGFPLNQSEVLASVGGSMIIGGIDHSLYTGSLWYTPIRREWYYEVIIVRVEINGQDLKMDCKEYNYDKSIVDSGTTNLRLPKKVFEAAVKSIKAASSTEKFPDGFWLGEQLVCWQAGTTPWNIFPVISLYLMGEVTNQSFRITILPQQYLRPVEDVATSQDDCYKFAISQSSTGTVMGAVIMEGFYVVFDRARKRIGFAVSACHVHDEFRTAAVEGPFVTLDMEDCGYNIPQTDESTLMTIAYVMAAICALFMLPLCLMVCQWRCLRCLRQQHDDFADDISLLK

In the case of `C[C@@]1(c2cc(NC(=O)c3ccn(C(F)F)n3)ccc2F)C[C@@H](C(F)(F)F)CC(N)=N1` [Compound 13], the melting point (commonly the temperature, or range, at which the solid turns liquid) came to 139.83 °C. Moreover, the IC50 in series [1] is 38.9 nM. The IC50 in series [2] is 3.09 nM. Further, the IC50 in series [3] is 24 nM. Also, the IC50 in series [4] was 22.4 nM. For the same compound, in series [5], the IC50 was 6.17 nM.

The values are drawn from patent US10106524B2, “2,3,4,5-tetrahydropyridin-6-amine and 3,4-dihydro-2H-pyrrol-5-amine compound inhibitors of beta-secretase” (Janssen Pharmaceutica NV, priority 2015, dated 2018).
